# From PubChem BioAssay (NCI)
#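 Step 1: Grow cells in 96-well plates. Step 2: Expose to compound for 48 hours at 5 concentrations. Step 3: Interpolate endpoints linearly; if unreached, use highest concentration. TGI denotes the concentration required for complete inhibition of growth.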
# How the values were obtained:
# Test in all cases: NCI anticancer screen, dose series, 48 h
# [1] = system: T-47D breast
# [2] = system: SF-268 CNS
# [3] = system: M14 melanoma
# [4] = system: UACC-62 melanoma
# [5] = system: OVCAR-3 ovarian
# [6] = system: U251 CNS
# [7] = system: MDA-MB-435
# [8] = system: PC-3 prostate
# [9] = system: K-562 leukemia
# [10] = system: UACC-257 melanoma
# [11] = system: IGROV1 ovarian
# [12] = system: MCF7 breast
# [13] = system: MALME-3M melanoma
# [14] = system: SNB-75 CNS
# [15] = system: KM12 colon
# [16] = system: SN12C renal
# [17] = system: A549 NSCLC
# [18] = system: TK-10 renal
# [19] = system: NCI-H23 lung
# [20] = system: OVCAR-8 ovarian
# [21] = system: RPMI-8226 leukemia
# [22] = system: MDA-N
# [23] = system: SK-MEL-5 melanoma
# [24] = system: HCC-2998 colon
# [25] = system: SW-620 colon
# [26] = system: ACHN renal
# [27] = system: NCI-H226 lung
# [28] = system: SNB-19 CNS
# [29] = system: SK-MEL-2 melanoma
# [30] = system: CAKI-1 renal
# [31] = system: A498 renal
# [32] = system: EKVX NSCLC
# [33] = system: OVCAR-4 ovarian
# [34] = system: NCI-H460 lung
# [35] = system: OVCAR-5 ovarian
# [36] = system: SF-539 CNS
# [37] = system: SK-MEL-28 melanoma
# [38] = system: MOLT-4 leukemia
# [39] = system: MDA-MB-231 breast
# [40] = system: HOP-92 NSCLC
# [41] = system: UO-31 renal
# [42] = system: COLO 205 colon
# [43] = system: RXF 393 renal
# [44] = system: LOX IMVI melanoma
# [45] = system: BT-549 breast
# [46] = system: SK-OV-3 ovarian
# [47] = system: HS 578T breast
# [48] = system: HL-60(TB) leukemia
# [49] = system: HOP-62 NSCLC
# [50] = system: SF-295 CNS
# [51] = system: NCI-H522 lung
# [52] = system: SR leukemia
# [53] = system: HCT-116 colon
# [54] = system: NCI/ADR-RES ovarian
# [55] = system: 786-0 renal
# [56] = system: HCT-15 colon
# [57] = system: HT29 colon
# [58] = system: CCRF-CEM leukemia
# [59] = system: DU-145 prostate
structure (smiles),measurement,setting,value
O=C1c2ccccc2C(=O)N1CCCSc1ccccc1,TGI,[1],> 100 µM
same,TGI,[2],> 100 µM
same,TGI,[3],> 100 µM
same,TGI,[4],> 100 µM
same,TGI,[5],> 100 µM
same,TGI,[6],> 100 µM
same,TGI,[7],> 100 µM
same,TGI,[8],> 100 µM
same,TGI,[9],> 100 µM
same,TGI,[10],> 100 µM
same,TGI,[11],> 100 µM
same,TGI,[12],> 100 µM
same,TGI,[13],> 100 µM
same,TGI,[14],> 100 µM
same,TGI,[15],> 100 µM
same,TGI,[16],> 100 µM
same,TGI,[17],> 100 µM
same,TGI,[18],> 100 µM
same,TGI,[19],> 100 µM
same,TGI,[20],> 100 µM
same,TGI,[21],> 100 µM
same,TGI,[22],> 100 µM
same,TGI,[23],> 100 µM
same,TGI,[24],> 100 µM
same,TGI,[25],> 100 µM
same,TGI,[26],> 100 µM
same,TGI,[27],> 100 µM
same,TGI,[28],> 100 µM
same,TGI,[29],> 100 µM
same,TGI,[30],> 100 µM
same,TGI,[31],> 100 µM
same,TGI,[32],> 100 µM
same,TGI,[33],> 100 µM
same,TGI,[34],> 100 µM
same,TGI,[35],> 100 µM
same,TGI,[36],> 100 µM
same,TGI,[37],> 100 µM
same,TGI,[38],> 100 µM
same,TGI,[39],> 100 µM
same,TGI,[40],> 100 µM
same,TGI,[41],> 100 µM
same,TGI,[42],> 100 µM
same,TGI,[43],> 100 µM
same,TGI,[44],> 100 µM
same,TGI,[45],> 100 µM
same,TGI,[46],> 100 µM
same,TGI,[47],> 100 µM
same,TGI,[48],> 100 µM
same,TGI,[49],> 100 µM
same,TGI,[50],> 100 µM
same,TGI,[51],> 100 µM
same,TGI,[52],> 100 µM
same,TGI,[53],> 100 µM
same,TGI,[54],> 100 µM
same,TGI,[55],> 100 µM
same,TGI,[56],> 100 µM
same,TGI,[57],> 100 µM
same,TGI,[58],> 100 µM
same,TGI,[59],> 100 µM
C=C(Cl)c1c(OC)cccc1OCc1ccccc1,TGI,[1],95.7 µM
same,TGI,[2],> 100 µM
same,TGI,[3],> 100 µM
same,TGI,[4],> 100 µM
same,TGI,[5],> 100 µM
same,TGI,[6],> 100 µM
same,TGI,[7],> 100 µM
same,TGI,[8],> 100 µM
same,TGI,[9],> 100 µM
same,TGI,[10],40.6 µM
same,TGI,[11],> 100 µM
same,TGI,[12],> 100 µM
same,TGI,[13],> 100 µM
same,TGI,[14],> 100 µM
same,TGI,[15],> 100 µM
same,TGI,[16],> 100 µM
same,TGI,[17],> 100 µM
same,TGI,[18],> 100 µM
same,TGI,[19],> 100 µM
same,TGI,[20],> 100 µM
same,TGI,[21],> 100 µM
same,TGI,[22],> 100 µM
same,TGI,[23],> 100 µM
same,TGI,[24],> 100 µM
same,TGI,[25],> 100 µM
same,TGI,[26],> 100 µM
same,TGI,[27],> 100 µM
same,TGI,[28],> 100 µM
same,TGI,[29],> 100 µM
same,TGI,[30],> 100 µM
same,TGI,[31],> 100 µM
same,TGI,[32],> 100 µM
same,TGI,[33],> 100 µM
same,TGI,[34],> 100 µM
same,TGI,[35],> 100 µM
same,TGI,[36],> 100 µM
same,TGI,[37],> 100 µM
same,TGI,[38],> 100 µM
same,TGI,[39],> 100 µM
same,TGI,[40],78.9 µM
same,TGI,[41],> 100 µM
same,TGI,[42],> 100 µM
same,TGI,[43],51.9 µM
same,TGI,[44],> 100 µM
same,TGI,[45],> 100 µM
same,TGI,[46],> 100 µM
same,TGI,[47],> 100 µM
same,TGI,[48],> 100 µM
same,TGI,[49],> 100 µM
same,TGI,[50],> 100 µM
same,TGI,[51],> 100 µM
same,TGI,[52],> 100 µM
same,TGI,[53],> 100 µM
same,TGI,[54],> 100 µM
same,TGI,[55],> 100 µM
same,TGI,[56],> 100 µM
same,TGI,[57],> 100 µM
same,TGI,[58],> 100 µM
same,TGI,[59],> 100 µM
Cc1c(C)c2c(c(N)c1C#N)C(=O)N(CCc1ccccc1)C2=O,TGI,[1],> 100 µM
same,TGI,[2],> 100 µM
same,TGI,[3],> 100 µM
same,TGI,[4],> 100 µM
same,TGI,[5],> 100 µM
same,TGI,[6],> 100 µM
same,TGI,[7],> 100 µM
same,TGI,[8],> 100 µM
same,TGI,[9],> 100 µM
same,TGI,[10],> 100 µM
same,TGI,[11],> 100 µM
same,TGI,[12],> 100 µM
same,TGI,[13],> 100 µM
same,TGI,[14],> 100 µM
same,TGI,[15],> 100 µM
same,TGI,[16],> 100 µM
same,TGI,[17],> 100 µM
same,TGI,[18],> 100 µM
same,TGI,[20],> 100 µM
same,TGI,[21],> 100 µM
same,TGI,[22],> 100 µM
same,TGI,[23],> 100 µM
same,TGI,[24],> 100 µM
same,TGI,[25],> 100 µM
same,TGI,[26],> 100 µM
same,TGI,[27],> 100 µM
same,TGI,[28],> 100 µM
same,TGI,[29],> 100 µM
same,TGI,[30],> 100 µM
same,TGI,[31],> 100 µM
same,TGI,[32],> 100 µM
same,TGI,[33],> 100 µM
same,TGI,[34],> 100 µM
same,TGI,[35],> 100 µM
same,TGI,[36],> 100 µM
same,TGI,[37],> 100 µM
same,TGI,[38],> 100 µM
same,TGI,[39],> 100 µM
same,TGI,[40],> 100 µM
same,TGI,[41],> 100 µM
same,TGI,[42],> 100 µM
same,TGI,[43],> 100 µM
same,TGI,[44],> 100 µM
same,TGI,[45],> 100 µM
same,TGI,[47],> 100 µM
same,TGI,[48],> 100 µM
same,TGI,[50],> 100 µM
same,TGI,[51],> 100 µM
same,TGI,[52],> 100 µM
same,TGI,[53],> 100 µM
same,TGI,[54],> 100 µM
same,TGI,[55],> 100 µM
same,TGI,[56],> 100 µM
same,TGI,[58],> 100 µM
same,TGI,[59],> 100 µM
Nc1nc(Cl)c(N)c(NCC2(CO)CCC2)n1,TGI,[1],> 100 µM
same,TGI,[2],> 100 µM
same,TGI,[3],> 100 µM
same,TGI,[4],> 100 µM
same,TGI,[5],> 100 µM
same,TGI,[6],> 100 µM
same,TGI,[7],> 100 µM
same,TGI,[8],> 100 µM
same,TGI,[9],> 100 µM
same,TGI,[10],> 100 µM
same,TGI,[11],> 100 µM
same,TGI,[12],> 100 µM
same,TGI,[13],> 100 µM
same,TGI,[14],> 100 µM
same,TGI,[15],> 100 µM
same,TGI,[16],> 100 µM
same,TGI,[17],> 100 µM
same,TGI,[18],> 100 µM
same,TGI,[19],> 100 µM
same,TGI,[20],> 100 µM
same,TGI,[21],> 100 µM
same,TGI,[22],> 100 µM
same,TGI,[23],> 100 µM
same,TGI,[24],> 100 µM
same,TGI,[25],> 100 µM
same,TGI,[26],> 100 µM
same,TGI,[27],> 100 µM
same,TGI,[28],> 100 µM
same,TGI,[29],> 100 µM
same,TGI,[30],> 100 µM
same,TGI,[31],> 100 µM
same,TGI,[32],> 100 µM
same,TGI,[33],> 100 µM
same,TGI,[34],> 100 µM
same,TGI,[35],> 100 µM
same,TGI,[36],> 100 µM
same,TGI,[37],> 100 µM
same,TGI,[38],> 100 µM
same,TGI,[39],> 100 µM
same,TGI,[40],> 100 µM
same,TGI,[41],> 100 µM
same,TGI,[42],> 100 µM
same,TGI,[43],> 100 µM
same,TGI,[44],> 100 µM
same,TGI,[45],> 100 µM
same,TGI,[46],> 100 µM
same,TGI,[47],> 100 µM
same,TGI,[48],> 100 µM
same,TGI,[49],> 100 µM
same,TGI,[50],> 100 µM
same,TGI,[51],> 100 µM
same,TGI,[52],> 100 µM
same,TGI,[53],> 100 µM
same,TGI,[54],> 100 µM
same,TGI,[55],> 100 µM
same,TGI,[56],> 100 µM
same,TGI,[57],> 100 µM
same,TGI,[58],> 100 µM
same,TGI,[59],> 100 µM
